Laboratory results from patent publication US11547708B2, “Compositions and methods to protect mammalian tissue against cold and other metabolic stresses” (THE UNITED STATES OF AMERICA, AS REPRESENTED BY THE …, priority 2017, dated 2023).
Where a SMILES comes first, the peptide text is derived from it. The star is where a group is joined. Cbz = O=C(OCc1ccccc1)*

How the values were obtained:
Type in all cases: cell-based
human iPSC-neurons [1] = assay: Detection of protein aggregates on neuronal microtubules; conditions: 4° C. for 4 h, pre-incubation
Procedure: After treatments, cultured neurons were fixed with 4% paraformaldehyde for 10 minutes and then permeabilized and washed with 0.1% Triton X-100 in phosphate buffered saline. Protein aggregates were visualized by a dye that intercalates into the denatured and aggregated proteins and becomes fluorescent (Proteostat aggresome detection kit, Enzo, Farmingdale, N.Y.; see Table 2) (Shen, 2011). For accumulation of protein aggregates on the neuronal microtubules, cells were stained with TUBB3 antibody and the protein aggregate dye, and images (188.94 μm×188.94 μm) were taken. In each image, the number of protein aggregates residing on the microtubules was counted and divided by the total length of the TUBB3+ microtubule paths.

[2] = tested on: rat retinal ganglion cells (RGCs); assay: Multielectrode array (MEA) recordings of RGC activity in cold-exposed rat retina explants; conditions: 4° C. for 4 h, Taxol 10 μM
Procedure: All experiments were carried out under dim red light. Rat retina explants were removed and cut into smaller pieces in hibernate-medium, and divided into different treatment groups for pre-incubation with drugs promoting microtubule stability or a DMSO vehicle control at room temperature for 30 minutes. The cold-exposed groups were incubated in the refrigerator, while the fresh control samples were incubated on the bench in dark at room temperature. […] After 4- or 24-hour incubation, the cold-exposed retinal explants were placed on the bench for 10-15 minutes, and washed twice with fresh hibernate-medium. Retinal explants from all groups were then transferred to oxygenated (95% O2/5% CO2) bicarbonate-buffered AMES medium at room temperature. The sclera and RPE were removed prior to flat mounting the neural retina with the ganglion cell (RGC)-side facing down onto the MEA.
During MEA recording, the neural retinas were perfused with 95% O2/5% CO2-balanced AMES perfusion at 37° C. to measure the spontaneous firing activity of the rat RGCs over the course of 15 minutes. […] For MEA data processing and analyses, the firing spikes of RGCs were first filtered and recorded in MC Rack with a high-pass filter set at 200 Hz, a low-pass filter set at 3000 Hz, and the automatic standard deviation for spike detection threshold was set at −6. […]

human iPSC-neurons [3] = assay: Evaluation of neuronal microtubule stability in response to cold (tubulin immunofluorescence, TUBB3+ microtubule tracing)
Procedure: The temperature-dependent experiments in this study were performed at ambient CO2 concentration, which required the use of hibernate-medium (Table 2) to maintain the physiological pH. Experiments were conducted by first incubating cultured neurons (human iPSC-derived, GS iPSC-derived, GS primary, or rat primary cultures) in hibernate-medium for 30 min at room temperature. During this time (pre-incubation), drug treatments (see Other Reagents, Table 1) were introduced to test cold resistance and microtubule stability. The cell culture dishes were then kept in an ambient 37° C. incubator, or in a 4° C. refrigerator. […] The pH of hibernate-medium was stable and maintained the pH between 7.0 and 7.4 even after 16-h incubation at 4° C.
Cultured neurons or rat retinal explants with or without treatments were fixed with 4% paraformaldehyde, permeabilized and washed with 0.1% Triton X-100 in phosphate buffered saline, and stained by antibodies against TUBB3. TUBB3+ microtubule paths in images of 188.94×188.94 μm^2 from human iPSC-derived neuronal cultures and images of 67.48×67.48 μm^2 from rat whole-mount retinas were traced with the ‘Simple Neurite Tracer’ plugin in ImageJ.

human iPSC-neurons [4] = assay: Live cell imaging of lysosomes using Magic Red and DND-26 (lysosomal membrane permeabilization, LMP); conditions: 4-h at 4° C.
Procedure: GS and Human iPSC-derived neuronal cultures were prepared in duplicate and incubated with hibernate-medium containing Magic Red (1:1000; ImmunoChemistry Technologies, Bloomington, Minn.) at 37° C. for 25 min, followed by the addition of LysoTracker Green DND-26 (50 nM; Thermo Fisher, Waltham, Mass.; see Table 1) for 5 min. The dye-containing medium was then replaced with fresh hibernate-medium, and one group of cultures was incubated at 4° C. for 1, 4 or 16 h, while the other group remained at 37° C. serving as normal controls. The cold-exposed group was subjected to confocal imaging at various temperatures (10° C., room temperature, or 37° C.), while the control group was imaged at either room temperature or 37° C. […] Magic Red becomes fluorescent after being cleaved by the lysosomal protease cathepsin B, while DND-26 is an acidotropic probe that accumulates in the acidic lysosomal vesicles. When LMP occurs, Magic Red and DND-26 signals become diffused within the cytoplasm of the affected cells. It was determined that cells have LMP if they contain a single Magic Red-stained particle of diameter >5 μm, which is about the size of the neuronal cell nucleus.

CC(C)C[C@@H](C=O)NC(=O)[C@H](CC(C)C)NC(=O)[C@H](CC(C)C)NC(=O)OCc1ccccc1 [MG-132] (Cbz-Leu-Leu-Leu-aldehyde)
protein aggregates along microtubule processes (human iPSC-neurons [1]): did not show any further increase in aggregation

CC(=O)O[C@H]1C(=O)[C@@]2(C)[C@H]([C@H](OC(=O)c3ccccc3)[C@]3(O)C[C@H](OC(=O)[C@H](O)[C@@H](NC(=O)c4ccccc4)c4ccccc4)C(C)=C1C3(C)C)[C@]1(OC(C)=O)CO[C@@H]1C[C@@H]2O [Taxol]
spontaneous RGC activity / firing rate distributions (MEA) [2]: did not preserve RGC activity
preservation of microtubules in cold (human iPSC-neurons [3]; human iPSC-neurons at 4° C., 10 μM (FIG. 6B)): preserved microtubules in cold
protection of neuronal microtubules, low dose (human iPSC-neurons [3]; human iPSC-neurons, 16-h cold exposure, 0.1 μM): did not protect

CCOC(=O)c1ccc(N2NC(=O)/C(=C/c3ccc([N+](=O)[O-])o3)C2=O)cc1 [PYR-41]
microtubule morphology after pre-treatment with ubiquitination inhibitor (human iPSC-neurons [3]; human iPSC-neurons, 4-h incubation at 4° C.): did not improve microtubule morphology

O=C1O[C@H]([C@@H](O)CO)C(O)=C1O [vitamin C, ascorbic acid]
LMP (number of cells containing diffuse Magic Red) (human iPSC-neurons [4]): alleviated LMP
